# Measurements reported in patent US8552035B2, “Phenanthrenone compounds, compositions and methods” (Pfizer Inc., priority 2008, dated 2013).
# Legend:
# Format in all cases: cell-based
# [1] = system: IFNγ; experiment: LPS-induced human whole blood, IFNγ release; conditions: for IFNγ (% inhibition) / inhibition at 3 µM: 3000 nM; for IFNγ (% inhibition): 3 µM; for inhibition at 0.00137174 µM: 1.371742 nM; for inhibition at 0.00411523 µM: 4.115226 nM; for inhibition at 0.0123457 µM: 12.34568 nM; for inhibition at 0.037037 µM: 37.03704 nM; for inhibition at 0.111111 µM: 111.1111 nM; for inhibition at 0.333333 µM: 333.3333 nM; for inhibition at 1 µM: 1000 nM
# Protocol: (§1) Venous blood from human donors was collected as 10 ml aliquots in tubes containing sodium heparin (BD Vacutainer from Becton Dickinson and Company, Franklin Lakes, N.Y.). Blood was added to sterile polystyrene round bottom 96-well tissue culture plates (Corning Costar) at 180 Blood was placed in a humidified 37 C incubator with 5% CO2 while compounds were prepared (nearly 60 minutes).
# (§2) Compounds were prepared from 10 mM stock solutions in dimethylsulfoxide (DMSO, Sigma-Aldrich). Stock compound was diluted in DMSO to give appropriate starting concentration then diluted serially 1/3 in DMSO (i.e. 15 μl compound+30 μl DMSO), followed by diluting each serial dilution 1/167 into vehicle solution (2% DMSO in phosphate buffered saline (Dulbecco's Phosphate Buffered Saline without calcium chloride without magnesium chloride, Invitrogen Corporation, Carlsbad Calif.)). Compound or vehicle was added to blood in 10 μl aliquots as triplicates, omitting the outside wells to minimize possible edge effects. The final highest concentration of each compound in the assay ranged from 3 to 0.3 μM. Final DMSO concentration in the assay was 0.1%. The plate containing the samples was gently vortexed to mix and replaced in the incubator. LPS stock (E. coli serotype 0111:B4, Sigma-Aldrich), stored in aliquots of 100 μg/ml in RPMI at −20° C., was diluted […] in RPMI to make a working stock solution. After 60 minutes of incubation, 10 μl of the prepared LPS working stock was added to the blood to a final concentration of 100 ng/ml. Wells to be used as negative control received RPMI media with no LPS. The plate was again gently vortexed and the plates incubated overnight for 22 hours. Following incubation, the blood was centrifuged at 1500×g for 5 minutes and the plasma removed to either freeze at −20° C. or assay for cytokine release.
# (§3) IL-1β, IFNγ and TNFα protein levels were measured using Meso Scale assay kits (Meso Scale Discovery, Gaithersburg, Md., U.S.A.). Reagents were allowed to come to room temperature. Meso Scale plates were blocked with 150 μl of Meso Scale Block B diluent, gently shaking at room temperature for 60 minutes. Plates were washed 3× with wash buffer (PBS, Invitrogen Corporation, with 0.05% Tween-20, Sigma-Aldrich). Calibrators for standard curves were prepared in human plasma/serum assay diluent as a 1/5 serial dilution to achieve final concentrations ranging from 50000 pg/ml to 3.2 pg/ml. Samples were added at 10 to 20 μl/well and calibrators were added at 20 μl/well then incubated at room temperature with gentle shaking for 2 hours. Plates were again washed 3× with wash buffer. Detection antibody was diluted in human plasma/serum antibody diluent to 1 μg/ml and added to the plate at 20 μl/well. Plates were incubated as before for 2 hours and washed again. Read Buffer T (4×) was diluted 1:1 with mqH20 to 2× concentration and 150 μl added to each well. Plates were read on the SECTOR Imager 6000 (Meso Scale Discovery) to generate raw signal values.
# (§4) Individual sample signal values were compared to positive and negative controls (vehicle treated blood with LPS and vehicle treated blood without LPS, respectively) to generate % inhibition. Triplicate values were averaged for each donor. The values for three or four donors were averaged and graphed using 4-parameter fit curves in the LabStats plug-in for the Microsoft Excel application.
# [2] = system: TNFα; experiment: LPS-induced human whole blood, TNFα release; conditions: for inhibition at 0.00137174 µM: 1.371742 nM; for inhibition at 0.00411523 µM: 4.115226 nM; for inhibition at 0.0123457 µM: 12.34568 nM; for inhibition at 0.037037 µM: 37.03704 nM; for inhibition at 0.111111 µM: 111.1111 nM; for inhibition at 0.333333 µM: 333.3333 nM; for inhibition at 1 µM: 1000 nM
# Protocol: as §1, §2, §3, §4
# [3] = system: IL-1β; experiment: LPS-induced human whole blood, IL-1β release; conditions: for inhibition at 0.00137174 µM: 1.371742 nM; for inhibition at 0.00411523 µM: 4.115226 nM; for inhibition at 0.0123457 µM: 12.34568 nM; for inhibition at 0.037037 µM: 37.03704 nM; for inhibition at 0.111111 µM: 111.1111 nM; for inhibition at 0.333333 µM: 333.3333 nM; for inhibition at 1 µM: 1000 nM
# Protocol: as §1, §2, §3, §4
# [4] = Homo sapiens, 3000 nM, mean of donors
# [5] = Homo sapiens, 0.457247 nM, mean of donors
# [6] = ex vivo LPS-stimulated human whole blood, extent of inhibition, concentration not given
SMILES,"inhibition at 0.00137174 µM ([1]; Homo sapiens, mean of donors)","inhibition at 0.00411523 µM ([1]; Homo sapiens, mean of donors)","inhibition at 0.0123457 µM ([1]; Homo sapiens, mean of donors)","inhibition at 0.037037 µM ([1]; Homo sapiens, mean of donors)","inhibition at 0.111111 µM ([1]; Homo sapiens, mean of donors)","inhibition at 0.333333 µM ([1]; Homo sapiens, mean of donors)","inhibition at 1 µM ([1]; Homo sapiens, mean of donors)","inhibition at 0.00137174 µM ([2]; Homo sapiens, mean of donors)","inhibition at 0.00411523 µM ([2]; Homo sapiens, mean of donors)","inhibition at 0.0123457 µM ([2]; Homo sapiens, mean of donors)","inhibition at 0.037037 µM ([2]; Homo sapiens, mean of donors)","inhibition at 0.111111 µM ([2]; Homo sapiens, mean of donors)","inhibition at 0.333333 µM ([2]; Homo sapiens, mean of donors)","inhibition at 1 µM ([2]; Homo sapiens, mean of donors)","inhibition at 0.00137174 µM ([3]; Homo sapiens, mean of donors)","inhibition at 0.00411523 µM ([3]; Homo sapiens, mean of donors)","inhibition at 0.0123457 µM ([3]; Homo sapiens, mean of donors)","inhibition at 0.037037 µM ([3]; Homo sapiens, mean of donors)","inhibition at 0.111111 µM ([3]; Homo sapiens, mean of donors)","inhibition at 0.333333 µM ([3]; Homo sapiens, mean of donors)",also measured
"Oc1ccc2c(c1)CC[C@@H]1C[C@@](O)(c3ccccc3)[C@@H](O)C[C@@]21Cc1ccccc1 [Comparator F, (2R,3S,4aR,10aR)-4a-Benzyl-2-phenyl-1,2,3,4,4a,9,10,10a-octahydrophenanthrene-2,3,7-triol]",-12.4%,-15.3%,-8.35%,-13.4%,-4.6%,-3.3%,14.6%,-2.51%,-8.12%,-6.79%,-4.23%,-6.35%,-3.43%,4.14%,-4.16%,-6.16%,-5.49%,-6.15%,-4.59%,-2.45%,"IFNγ (% inhibition) ([1]; mean of donors): 21.96%; inhibition at 3 µM ([1]; Homo sapiens, mean of donors): 22%; inhibition at 1 µM ([3]; Homo sapiens, mean of donors): 0.22%"
"Cc1ncccc1COc1ccc2c(c1)CC[C@@H]1C[C@@](O)(c3ccccc3)[C@@H](O)C[C@@]21Cc1ccccc1 [Comparator G, (2R,3S,4aR,10aR)-4a-Benzyl-7(2-methyulpyridin-3-ylmethoxy)-2-phenyl-1,2,3,4,4a,9,10,10a-octahydrophenanthrene-2,3 diol]",16.7%,12.8%,-9.15%,-2.58%,2.66%,2.02%,13.2%,3.22%,-2.9%,-14%,-13.9%,-8.76%,-13.8%,-8.47%,-0.115%,-2.64%,-7.52%,-7.35%,-5.37%,-6.75%,"IFNγ (% inhibition) ([1]; mean of donors): 41.3796%; inhibition at 3 µM ([1]; Homo sapiens, mean of donors): 41%; inhibition at 3 µM [2, 4]: < 20%; inhibition at 1 µM ([3]; Homo sapiens, mean of donors): -1.19%; inhibition at 3 µM [3, 4]: < 20%"
C[C@]12C=CC(=O)C=C1CC[C@@H]1[C@@H]2[C@@H](O)C[C@@]2(C)[C@H]1CC[C@]2(O)C(=O)CO [Prednisolone],9.75%,25.2%,34.7%,70.7%,85.2%,94.8%,96.4%,6.36%,8.95%,19.6%,49.2%,67.1%,86.9%,90.4%,-1.26%,0.84%,7.17%,36.7%,61.9%,87.6%,"inhibition at 0.000457247 µM [1, 5]: 1.19%; level of inhibition of IFN [1, 6]: full inhibition; inhibition at 0.000457247 µM [2, 5]: 2.76%; level of inhibition of TNF [2, 6]: full inhibition; inhibition at 0.000457247 µM [3, 5]: -0.571%; inhibition at 1 µM ([3]; Homo sapiens, mean of donors): 91.8%; level of inhibition of IL-1 [3, 6]: full inhibition"
